Source: PubChem BioAssay (NCI)
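In this assay, cells in 96-well plates receive the compound at five concentrations for 48 hours. Endpoints are linearly interpolated between the surrounding concentrations. At the GI50, growth is halved. At the TGI there is no net growth.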

Tests used:
Assay in all cases: NCI tumour cell line growth inhibition, 48 h
OVCAR-5 ovarian = tested on: OVCAR-5 ovarian
SN12C renal = tested on: SN12C renal
SNB-19 CNS = tested on: SNB-19 CNS
SW-620 colon = tested on: SW-620 colon
PC-3 prostate = tested on: PC-3 prostate
HS 578T breast = tested on: HS 578T breast
HCT-116 colon = tested on: HCT-116 colon
RPMI-8226 leukemia = tested on: RPMI-8226 leukemia
SK-MEL-5 melanoma = tested on: SK-MEL-5 melanoma
BT-549 breast = tested on: BT-549 breast

Structure (SMILES) | TGI (OVCAR-5 ovarian) [µM] | TGI (SN12C renal) [µM] | TGI (SNB-19 CNS) [µM] | TGI (SW-620 colon) [µM] | TGI (PC-3 prostate) [µM] | TGI (HS 578T breast) [µM] | TGI (HCT-116 colon) [µM] | TGI (RPMI-8226 leukemia) [µM] | TGI (SK-MEL-5 melanoma) [µM] | TGI (BT-549 breast) [µM] | GI50 (OVCAR-5 ovarian) [µM] | GI50 (SN12C renal) [µM] | GI50 (PC-3 prostate) [µM] | GI50 (HS 578T breast) [µM] | GI50 (SK-MEL-5 melanoma) [µM] | GI50 (BT-549 breast) [µM] | GI50 (SNB-19 CNS) [µM] | GI50 (RPMI-8226 leukemia) [µM]
COc1ccc2c(c1)CCc1c-2n(CCN(C)C)c2ccc(OC)cc12 | 51.6 | > 100 | 36.5 | 74.5 | 46 | 77 | > 100 | 65.9 | > 100 | > 100 | – | – | – | – | – | – | – | –
Cc1ccc(S(=O)(=O)N2CCN(CCN(C)CCN3CCN(S(=O)(=O)c4ccc(C)cc4)CC3)CC2)cc1 | 80.8 | 37.6 | 69.4 | 31.7 | 56 | 42.2 | 35 | 37 | 32.3 | 30.6 | – | – | – | – | – | – | – | –
CCOC(=O)C(Cc1ccccc1)(Cc1ccc(O)cn1)NC(=O)c1ccccc1 (centres undefined) | > 100 | – | > 100 | > 100 | 75.1 | 63.6 | 68.4 | > 100 | 36.6 | 81 | – | – | – | – | – | – | – | –
CC#CC(O)(C(=O)OC1CCCN(C)C1)C1=CC=CCC1 (centres undefined) | > 100 | > 100 | > 100 | > 100 | > 100 | > 100 | > 100 | > 100 | > 100 | – | – | – | – | – | – | – | – | –
NC(=O)COc1ccccc1 | > 100 | > 100 | > 100 | > 100 | – | – | > 100 | > 100 | > 100 | – | – | – | – | – | – | – | – | –
N#Cc1c2c(c(N3CCOCC3)n3c1nc1ccccc13)CCCC2 | 41.8 | 45.8 | 32 | 29 | 50.3 | > 100 | 31.7 | – | 37 | > 100 | – | – | – | – | – | – | – | –
COC(=O)c1cncc2c1CC1C3(C(=O)OC)C=NC(C4C(CO)=CCC43)C21C (centres undefined) | > 100 | > 100 | > 100 | > 100 | > 100 | > 100 | > 100 | – | > 100 | – | – | – | – | – | – | – | – | –
COc1cc(/C=C2/SC(c3ccccc3)N(c3cccc([N+](=O)[O-])c3)C2=O)cc(OC)c1OC (centres undefined) | > 100 | > 100 | > 100 | > 100 | – | > 100 | > 100 | > 100 | > 100 | > 100 | – | – | – | – | – | – | – | –
CCOC(=O)c1sc2c(c1OC(=O)c1ccccc1)c(=O)n(-c1ccccc1)c(=S)n2-c1ccccc1 | > 100 | > 100 | > 100 | > 100 | > 100 | 75.6 | 74.8 | > 100 | 49.7 | – | – | – | – | – | – | – | – | –
COS(=O)c1cc(Cl)cc(Cl)c1O (centres undefined) | > 100 | > 100 | > 100 | – | – | – | > 100 | – | – | – | – | – | – | – | – | – | – | –
O=C1OS2(OCc3cccc4cccc2c34)c2ccccc21 (centres undefined) | > 100 | > 100 | > 100 | > 100 | > 100 | – | > 100 | > 100 | > 100 | > 100 | – | – | – | – | – | – | – | –
CSC1SCC2C(=O)N(C)C3(CC3C)C(=O)OCC(NC(=O)c3nc4ccccc4cc3O)C(=O)NC(C)C(=O)N(C)C1C(=O)N(C)C1(CC1C)C(=O)OCC(NC(=O)c1nc3ccccc3cc1O)C(=O)NC(C)C(=O)N2C (centres undefined) | – | – | 6.9 | > 100 | – | < 0.0001 | 16.4 | < 0.0001 | – | – | – | – | – | – | – | – | – | –
CC1=CC[C@@H]2CC[C@]3(C)[C@H](CC[C@@H]4[C@@]5(C)CCCNC(C)(C)[C@@H]5CC[C@]43C)[C@H]2[C@@H]1C | 3.07 | 3.44 | – | – | 3.02 | 4.04 | – | – | 3.08 | 3.14 | 1.67 | 1.83 | 1.58 | 1.79 | 1.7 | 1.66 | – | –
CCCCSc1n/c(=C\c2ccc(N(C)C)cc2)c2nnnn12 | > 100 | > 100 | > 100 | > 100 | > 100 | > 100 | > 100 | > 100 | – | > 100 | – | – | – | – | – | – | – | –
CC1(C)C2CC(c3ccncc3)ON2C(C)(C)N1O (centres undefined) | > 100 | > 100 | > 100 | > 100 | > 100 | > 100 | > 100 | > 100 | > 100 | – | – | – | – | – | – | – | – | –
O=C(NCCO)c1ccc(Cl)cc1 | > 100 | > 100 | > 100 | > 100 | > 100 | > 100 | > 100 | – | > 100 | > 100 | – | – | – | – | – | – | – | –
CCOC(=O)c1cn(-c2ccc(Cl)cc2)c(=O)n2c1nc1ccccc12 | > 100 | > 100 | > 100 | > 100 | > 100 | – | > 100 | > 100 | > 100 | > 100 | – | – | – | – | – | – | – | –
COC(=O)[C@@H]1N2C(=S)N(c3ccccc3)C(=O)[C@H]2SC1(C)C | > 100 | > 100 | > 100 | > 100 | > 100 | – | > 100 | > 100 | > 100 | > 100 | – | – | – | – | – | – | – | –
COc1c/c(=C2/C=c3ccccc3=N2)[nH]/c1=C/c1[nH]c(C)cc1C | – | – | > 100 | – | > 100 | – | – | 1.95 | 0.0835 | – | – | – | 0.059 | – | 0.0304 | – | 0.598 | 0.0533
CCOC(=O)C(C(=O)Cc1ccccc1)c1ccccc1 (centres undefined) | > 100 | > 100 | > 100 | > 100 | – | – | > 100 | > 100 | > 100 | – | – | – | – | – | – | – | – | –
OCCN=C1Nc2ccc(Cl)cc2C(=S)N2CSC[C@@H]12 | > 100 | > 100 | > 100 | > 100 | > 100 | – | > 100 | > 100 | > 100 | – | – | – | – | – | – | – | – | –
C=C1C[C@]23C[C@@]1(O)CC[C@H]2[C@@]12C=C[C@H](O)[C@@](C)(C(=O)O1)[C@H]2[C@@H]3C(=O)O | > 100 | > 100 | > 100 | > 100 | – | – | > 100 | > 100 | > 100 | – | – | – | – | – | – | – | – | –
CSc1nncc(-c2cc3c(c(SC)n2)CCC3)n1 | > 100 | > 100 | > 100 | > 100 | > 100 | – | > 100 | > 100 | > 100 | > 100 | – | – | – | – | – | – | – | –
